Experimental data reported in US20150164762A1, “USE OF ETHANOLAMINE PHOSPHATE” (priority 2012, published 2015).

Test system: BEAS-2B
Assay: Comprehensive gene expression analysis with Whole Human Genome DNA microarray after EP treatment
Assay type: cell-based
Procedure: Cells of the established normal human airway epithelial cell line BEAS-2B were used in the experiment. These cells were expansively cultured in 10% FBS RPMI-1640, and seeded at a density of 1×10^5/cm^2 on a 24-well plate. After 24 hours 0.1% FBS RPMI-1640 was substituted, and EP was administered to a final concentration of 0 or 1 mM (n=4). After 24 hours, the cells were used as the DNA microarray samples. RNA was extracted using a QIAGEN RNeasy Mini Kit. The DNA microarray test was performed using a Whole Human Genome DNA microarray 4×44K (Agilent), and the necessary labeling reagents and the like for the DNA microarray test were all from Agilent. The DNA microarray test data were analyzed statistically with GeneSpring (Agilent) dedicated analysis software, and gene function analysis (Gene Ontology (GO) analysis) was performed based on differential expression. The purpose of the GO analysis is to determine stochastically the degree to which gene sets with statistically significant differential expression correspond to known functional classification gene sets. […] The p-value is calculated according to the following formula.

[1] = probe A_23_P1361, NM_002860, EP vs control
[2] = probe A_23_P5392, 1 mM EP, 24 h
[3] = probe A_23_P8961, NM_000880, EP vs control
[4] = probe A_23_P15247, 1 mM EP, 24 h
[5] = probe A_23_P16523, NM_004864, EP vs control
[6] = probe A_23_P21134, 1 mM EP, 24 h
[7] = probe A_23_P23960, 1 mM EP, 24 h
[8] = probe A_23_P25354, 1 mM EP, 24 h
[9] = probe A_23_P28625, 1 mM EP, 24 h

With NCCOP(=O)(O)O [EP, Ethanolamine phosphate] the “R*: Ratio to control” value (P2RX7, probe A_23_P25354) was 0.561 times, the “log2 [ratio]” value (P2RX7, probe A_23_P25354) was −0.834 and the “R*: Ratio to control” value (P2RX7, probe A_24_P319113) was 0.586 times. The “log2 [ratio]” value (P2RX7, probe A_24_P319113) was −0.772, the “R*: Ratio to control” value (PERP, probe A_23_P214950) was 0.521 times and the “log2 [ratio]” value (PERP, probe A_23_P214950) was −0.941. The “R*: Ratio to control” value (PHLDA3, probe A_23_P62959) was 0.271 times, the “log2 [ratio]” value (PHLDA3, probe A_23_P62959) was −1.884 and the “R*: Ratio to control” value (PLK1, probe A_23_P118174) was 2.447 times. For the same compound, the “log2 [ratio]” value (PLK1, probe A_23_P118174) was 1.291, the “R*: Ratio to control” value (PLK1, probe A_24_P313504) was 1.939 times and the “log2 [ratio]” value (PLK1, probe A_24_P313504) was 0.955. For the same compound, the “R*: Ratio to control” value (PMAIP1, probe A_23_P207999) was 0.344 times, the “log2 [ratio]” value (PMAIP1, probe A_23_P207999) was −1.540 and the “R*: Ratio to control” value (PML, probe A_23_P358944) was 0.586 times. The “log2 [ratio]” value (PML, probe A_23_P358944) was −0.770, the “R*: Ratio to control” value (PPAP2B, probe A_23_P201808) was 1.919 times and the “log2 [ratio]” value (PPAP2B, probe A_23_P201808) was 0.941. The “R*: Ratio to control” value (ROBO4, probe A_23_P104881) was 1.785 times, the “log2 [ratio]” value (ROBO4, probe A_23_P104881) was 0.836 and the “R*: Ratio to control” value (ROBO4, probe A_23_P344421) was 1.633 times. For the same compound, the “log2 [ratio]” value (ROBO4, probe A_23_P344421) was 0.707, the “R*: Ratio to control” value (RTN4, probe A_23_P56933) was 1.510 times and the “log2 [ratio]” value (RTN4, probe A_23_P56933) was 0.594. For the same compound, the “R*: Ratio to control” value (SEMA4D, probe A_24_P261169) was 0.558 times, the “log2 [ratio]” value (SEMA4D, probe A_24_P261169) was −0.842 and the “R*: Ratio to control” value (SEPT4, probe A_23_P207003) was 0.503 times. For the same compound, the “log2 [ratio]” value (SEPT4, probe A_23_P207003) was −0.990, the “R*: Ratio to control” value (SKP2, probe A_23_P156310) was 1.531 times and the “log2 [ratio]” value (SKP2, probe A_23_P156310) was 0.615. For the same compound, the “R*: Ratio to control” value (SOX7, probe A_23_P169738) was 0.362 times, the “log2 [ratio]” value (SOX7, probe A_23_P169738) was −1.464 and the “R*: Ratio to control” value (SOX7, probe A_23_P306987) was 0.338 times. For the same compound, the “log2 [ratio]” value (SOX7, probe A_23_P306987) was −1.566, the “R*: Ratio to control” value (SOX7, probe A_24_P226782) was 0.607 times and the “log2 [ratio]” value (SOX7, probe A_24_P226782) was −0.720. For the same compound, the “R*: Ratio to control” value (SST, probe A_23_P252817) was 0.666 times, the “log2 [ratio]” value (SST, probe A_23_P252817) was −0.587 and the “R*: Ratio to control” value (TACSTD2, probe A_23_P149529) was 1.507 times. For the same compound, the “log2 [ratio]” value (TACSTD2, probe A_23_P149529) was 0.591, the “R*: Ratio to control” value (TGFBR2, probe A_23_P211957) was 1.634 times and the “log2 [ratio]” value (TGFBR2, probe A_23_P211957) was 0.708. For the same compound, the “R*: Ratio to control” value (TGFBR2, probe A_23_P337242) was 1.630 times, the “log2 [ratio]” value (TGFBR2, probe A_23_P337242) was 0.705 and the “R*: Ratio to control” value (TNFRSF17, probe A_23_P37736) was 2.525 times. For the same compound, the “log2 [ratio]” value (TNFRSF17, probe A_23_P37736) was 1.336, the “R*: Ratio to control” value (VEGFC, probe A_23_P167096) was 1.637 times and the “log2 [ratio]” value (VEGFC, probe A_23_P167096) was 0.711. The “R*: Ratio to control” value (WARS2, probe A_23_P74380) was 1.594 times, the “log2 [ratio]” value (WARS2, probe A_23_P74380) was 0.673 and the “R*: Ratio to control” value (WDR12, probe A_23_P28625) was 1.676 times. For the same compound, the “log2 [ratio]” value (WDR12, probe A_23_P28625) was 0.745, the “R*: Ratio to control” value (ZFPM2, probe A_23_P168909) was 1.678 times and the “log2 [ratio]” value (ZFPM2, probe A_23_P168909) was 0.746. For the same compound, the “ALDH18A1 gene expression, R* ratio to control” value [1] was 1.460 times, the “ALDH18A1 gene expression, log2 [ratio]” value [1] was 0.546 and the “TP53I3 expression R*: Ratio to control” value [2] was 0.423 times. For the same compound, the “TP53I3 expression log2 [ratio]” value [2] was −1.241, the “IL7 gene expression, R* ratio to control” value [3] was 0.103 times and the “IL7 gene expression, log2 [ratio]” value [3] was −3.273. For the same compound, the “C16orf5 expression R*: Ratio to control” value [4] was 0.519 times, the “C16orf5 expression log2 [ratio]” value [4] was −0.947 and the “GDF15 gene expression, R* ratio to control” value [5] was 0.104 times. For the same compound, the “GDF15 gene expression, log2 [ratio]” value [5] was −3.265, the “DDIT3 expression R*: Ratio to control” value [6] was 0.210 times and the “DDIT3 expression log2 [ratio]” value [6] was −2.249. For the same compound, the “BLOC1S2 expression R*: Ratio to control” value [7] was 0.398 times, the “BLOC1S2 expression log2 [ratio]” value [7] was −1.336 and the “P2RX7 expression R: Ratio to control” value [8] was 0.661 times. The “P2RX7 expression log2 [ratio]” value [8] was −0.834, the “WDR12 expression R*: Ratio to control” value [9] was 1.676 times and the “WDR12 expression log2 [ratio]” value [9] was 0.745. The “BDH1 gene expression, R* ratio to control” value (probe A_23_P29754, NM_203314, EP vs control) was 1.462 times.
